Key:
ewes = details: in vivo; cited from earlier work
Maiden Merino ewes = details: in vivo

superovulation (Maiden Merino ewes): does not induce superovulation
Compound: COc1ccc2[nH]cc(CCNC(C)=O)c2c1 [Melatonin, N-acetyl 5-methoxy tryptamine]
basal prolactin levels (ewes): depressed
breeding season (ewes): advanced
